Reference: patent publication US10975083B2, “Blood-brain barrier-penetrant dopamine-β-hydroxylase inhibitors” (BIAL—PORTELA & Cᵃ, S.A., priority 2016, dated 2021)
Like-named read-outs stand apart in the source and are kept apart here.

Tests used:
in vitro = conditions: dog, MDCK, pH 7.4
DβH = target: T1, DβH (Homo sapiens, UniProt P09172); test: DβH inhibition cell assay (SK-N-SH cellular homogenates, tyramine to octopamine); assay type: biochemical; conditions: for remaining activity at 1 µM: read-out: DβH activity in % of Ctrl (1 μM); for remaining activity at 0.1 µM: read-out: DβH activity in % of Ctrl (0.1 μM); for remaining activity at 10 µM: inhibitor 10 μM, read-out: DβH activity in % of Ctrl (10 μM)
T1 construct: reaction mixture (total volume 500 μl) contained: cellular homogenate (75 μg total protein); host or cells: SK-N-SH cell homogenate
T1 sequence (P09172 1-617): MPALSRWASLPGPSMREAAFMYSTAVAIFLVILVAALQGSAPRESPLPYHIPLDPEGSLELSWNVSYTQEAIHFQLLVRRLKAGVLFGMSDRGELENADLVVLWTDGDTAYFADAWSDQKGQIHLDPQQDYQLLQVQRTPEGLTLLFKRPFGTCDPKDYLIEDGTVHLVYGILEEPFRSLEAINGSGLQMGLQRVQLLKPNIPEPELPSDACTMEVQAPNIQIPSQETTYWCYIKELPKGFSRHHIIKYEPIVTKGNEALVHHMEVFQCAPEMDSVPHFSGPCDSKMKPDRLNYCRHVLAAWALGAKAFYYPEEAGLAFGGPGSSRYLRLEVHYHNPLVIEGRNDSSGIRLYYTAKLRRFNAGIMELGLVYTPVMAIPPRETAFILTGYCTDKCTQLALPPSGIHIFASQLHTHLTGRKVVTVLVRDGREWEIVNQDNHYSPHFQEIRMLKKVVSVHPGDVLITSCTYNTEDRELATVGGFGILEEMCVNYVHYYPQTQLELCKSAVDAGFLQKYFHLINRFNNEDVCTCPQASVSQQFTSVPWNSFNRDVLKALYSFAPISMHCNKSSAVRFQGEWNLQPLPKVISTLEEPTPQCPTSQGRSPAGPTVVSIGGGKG

[1] = inhibitor 1 μM, SK-N-SH cell homogenate
[2] = inhibitor 0.1 μM, SK-N-SH cell homogenate

| Compound | Papp A→B at 30 min, 50 μM (in vitro) | remaining activity at 1 µM (DβH; [1]) | remaining activity at 0.1 µM (DβH; [2]) | remaining activity at 10 µM (DβH; SK-N-SH cell homogenate) | remaining activity at 1 µM (DβH) | remaining activity at 0.1 µM (DβH) |
| --- | --- | --- | --- | --- | --- | --- |
| Fc1ccc(C2Cc3c[nH]c(=S)n3C2)c(F)c1 (stereo not shown) [Example 51, 6-(2,4-Difluorophenyl)-6,7-dihydro-2H-pyrrolo[1,2-c]imidazole-3(5H)-thione] | 100 ×10⁻⁶ cm/s | – | – | – | 54.4% | – |
| NC(=S)N1C[C@H]2C[C@@]2(c2cccs2)C1 [Example 27, (1S,5S)-1-(thiophen-2-yl)-3-azabicyclo[3.1.0]hexane-3-carbothioamide] | 126 ×10⁻⁶ cm/s | 20.8% | – | – | – | – |
| Fc1ccc(F)c([C@]23C[C@H]2c2c[nH]c(=S)n2C3)c1 [Example 56, (5aS,6aR)-5a-(2,5-difluorophenyl)-5,5a,6,6a-tetrahydrocyclopropa[3,4]pyrrolo[1,2-c]imidazole-3(2H)-thione] | 15.8 ×10⁻⁶ cm/s | 7.8% | 41.7% | – | – | – |
| NC(=S)N1CCC(c2ccco2)C1 (stereo not shown) [Example 17, 3-(furan-2-yl)pyrrolidine-1-carbothioamide] | 79.4 ×10⁻⁶ cm/s | 56.8% | – | – | – | – |
| NC(=S)N1CCC(c2ccccc2)C1 (stereo not shown) [Example 1, 3-Phenylpyrrolidine-1-carbothioamide] | 63.1 ×10⁻⁶ cm/s | 42.4% | 75.6% | 4% | – | – |
| NC(=S)N1CC2CC2(c2ccccc2)C1 (stereo not shown) [Example 8, 1-phenyl-3-azabicyclo[3.1.0]hexane-3-carbothioamide] | 126 ×10⁻⁶ cm/s | 14.5% | – | 2.2% | – | – |
| NC(=S)N1CCC(c2ccsc2)C1 (stereo not shown) [Example 15, 3-(thiophen-3-yl)pyrrolidine-1-carbothioamide] | 79.4 ×10⁻⁶ cm/s | 9.3% | 50.1% | – | – | – |
| S=c1[nH]cc2n1CC(c1ccccc1)C2 (stereo not shown) [Example 49, 6-phenyl-6,7-dihydro-2H-pyrrolo[1,2-c]imidazole-3(5H)-thione] | 100 ×10⁻⁶ cm/s | – | – | – | 60.6% | – |
| Fc1cc(F)cc([C@H]2Cc3c[nH]c(=S)n3C2)c1 [Example 58, (R)-6-(3,5-difluorophenyl)-6,7-dihydro-2H-pyrrolo[1,2-c]imidazole-3(5H)-thione] | 126 ×10⁻⁶ cm/s | – | – | – | 59.8% | 106% |
| Cc1ccc(C2CCN(C(N)=S)C2)s1 (stereo not shown) [Example 10, 3-(5-methylthiophen-2-yl)pyrrolidine-1-carbothioamide] | 126 ×10⁻⁶ cm/s | 2.7% | 54.9% | 0% | – | – |
| CC1(c2ccccc2)CCN(C(N)=S)C1 (stereo not shown) [Example 7, 3-methyl-3-phenylpyrrolidine-1-carbothioamide] | 100 ×10⁻⁶ cm/s | 37.7% | 84.8% | 7.5% | – | – |
| Fc1cc(F)cc(C23CC2c2c[nH]c(=S)n2C3)c1 (stereo not shown) [Example 53, 5a-(3,5-difluorophenyl)-5,5a,6,6a-tetrahydrocyclopropa[3,4]pyrrolo[1,2-c]imidazole-3(2H)-thione] | 25.1 ×10⁻⁶ cm/s | – | – | – | 11.8% | 66.5% |
| CNC(=S)N1C[C@@H]2C[C@]2(c2cc(F)cc(F)c2)C1 [Example 30, (1S,5R)-1-(3,5-Difluorophenyl)-N-methyl-3-azabicyclo[3.1.0]hexane-3-carbothioamide] | 126 ×10⁻⁶ cm/s | 2.8% | 3.3% | – | – | – |
| NC(=S)N1CCC(c2cccs2)C1 (stereo not shown) [Example 2, 3-(thiophen-2-yl)pyrrolidine-1-carbothioamide] | 126 ×10⁻⁶ cm/s | – | 54.9% | 0% | – | – |
| NC(=S)N1CCC(C2CCCCC2)C1 (stereo not shown) [Example 9, 3-cyclohexylpyrrolidine-1-carbothioamide] | 251 ×10⁻⁶ cm/s | 30.9% | – | 5.3% | – | – |
| CNC(=S)N1CCC(c2ccccc2)C1 (stereo not shown) [Example 31, N-methyl-3-phenylpyrrolidine-1-carbothioamide] | 79.4 ×10⁻⁶ cm/s | – | – | 15.8% | – | – |

Further lines, with some results ahead:

| Papp A→B at 30 min, 50 μM (in vitro) | remaining activity at 1 µM (DβH; [1]) | remaining activity at 0.1 µM (DβH; [2]) | remaining activity at 10 µM (DβH; SK-N-SH cell homogenate) | Compound | remaining activity at 1 µM (DβH) | remaining activity at 0.1 µM (DβH) |
| --- | --- | --- | --- | --- | --- | --- |
| 100 ×10⁻⁶ cm/s | 44.1% | – | – | CNC(=S)N1CC(c2cc(F)cc(F)c2)CC1=O (stereo not shown) [Example 42, 4-(3,5-difluorophenyl)-N-methyl-2-oxopyrrolidine-1-carbothioamide] | – | – |
| 79.4 ×10⁻⁶ cm/s | 11.5% | 63% | 0% | NC(=S)N1CCC(c2cc(F)cc(F)c2)C1 (stereo not shown) [Example 12, 3-(3,5-Difluorophenyl)pyrrolidine-1-carbothioamide] | – | – |
| 63.1 ×10⁻⁶ cm/s | 0% | 12.3% | – | NC(=S)N1CC2CC2(c2cc(F)cc(F)c2)C1 (stereo not shown) [Example 34, 1-(3,5-difluorophenyl)-3-azabicyclo[3.1.0]hexane-3-carbothioamide] | – | – |
| 79.4 ×10⁻⁶ cm/s | 2.4% | 59.7% | – | NC(=S)N1CC2CC2(c2ccc(F)cc2F)C1 (stereo not shown) [Example 37, 1-(2,4-difluorophenyl)-3-azabicyclo[3.1.0]hexane-3-carbothioamide] | – | – |
| 100 ×10⁻⁶ cm/s | 4.7% | 57.3% | – | CNC(=S)N1CCC(c2cc(F)cc(F)c2)C1 (stereo not shown) [Example 32, 3-(3,5-difluorophenyl)-N-methylpyrrolidine-1-carbothioamide] | – | – |
| 25.1 ×10⁻⁶ cm/s | 8.2% | 44.3% | – | Fc1cc(F)cc([C@]23C[C@H]2c2c[nH]c(=S)n2C3)c1 [Example 54, (5aS,6aR)-5a-(3,5-difluorophenyl)-5,5a,6,6a-tetrahydrocyclopropa[3,4]pyrrolo[1,2-c]imidazole-3(2H)-thione] | – | – |
| 200 ×10⁻⁶ cm/s | 0% | 43.6% | – | CNC(=S)N1CC2(c3cc(F)cc(F)c3)CC2C1=O (stereo not shown) [Example 43, 1-(3,5-Difluorophenyl)-N-methyl-4-oxo-3-azabicyclo[3.1.0]hexane-3-carbothioamide] | – | – |
| 126 ×10⁻⁶ cm/s | 36.6% | 89.3% | 6.8% | Fc1cc(F)cc(C2Cc3c[nH]c(=S)n3C2)c1 (stereo not shown) [Example 50, 6-(3,5-difluorophenyl)-6,7-dihydro-2H-pyrrolo[1,2-c]imidazole-3(5H)-thione] | – | – |
| 100 ×10⁻⁶ cm/s | 21.4% | – | – | NC(=S)N1CC[C@H](c2cc(F)cc(F)c2)C1 [Example 26, (R)-3-(3,5-difluorophenyl)pyrrolidine-1-carbothioamide] | – | – |
| 79.4 ×10⁻⁶ cm/s | 0.4% | 61% | – | Fc1ccc(F)c(C23CC2c2c[nH]c(=S)n2C3)c1 (stereo not shown) [Example 55, 5a-(2,5-difluorophenyl)-5,5a,6,6a-tetrahydrocyclopropa[3,4]pyrrolo[1,2-c]imidazole-3(2H)-thione] | – | – |
| 251 ×10⁻⁶ cm/s | 27.8% | 100% | – | Fc1cc(F)cc([C@@H]2Cc3c[nH]c(=S)n3C2)c1 [Example 59, (S)-6-(3,5-difluorophenyl)-6,7-dihydro-2H-pyrrolo[1,2-c]imidazole-3(5H)-thione] | – | – |
| 100 ×10⁻⁶ cm/s | 15.9% | 40.2% | – | NC(=S)N1CCC(c2cc(F)cc(F)c2F)C1 (stereo not shown) [Example 24, 3-(2,3,5-trifluorophenyl)pyrrolidine-1-carbothioamide] | – | – |
